Assays:
[1] = test system: Human immunodeficiency virus; test: Inhibition of U5 GddA LTR HIV wild type integrase assessed as strand transfer activity using by scintillation proximity assay relative to wild type LTR; parameters: scale not given: the % may be the effect or the level left; settings: tested as the 3H-labelled form
[2] = test system: Human immunodeficiency virus; test: Binding affinity to U5 GTCT LTR HIV wild type integrase using U5 GTCT LTR relative to wild type LTR; settings: tested as the 3H-labelled form
[3] = test system: Human immunodeficiency virus; test: Binding affinity to HIV wild type integrase using U5 GTAA LTR relative to wild type LTR; settings: tested as the 3H-labelled form
[4] = test system: Human immunodeficiency virus type 1 integrase (Human immunodeficiency virus 1), Q7ZJM1 [N155H]; test: Binding affinity to HIV recombinant integrase N155H mutant using U5 ApTCA LTR relative to wild type LTR; settings: tested as the 3H-labelled form
[5] = test system: Human immunodeficiency virus; test: Binding affinity to HIV wild type integrase using U5 ATCA LTR relative to wild type LTR; settings: tested as the 3H-labelled form
[6] = test system: Human immunodeficiency virus; test: Inhibition of HIV wild type integrase assessed as strand transfer activity using U5 GTAC LTR by scintillation proximity assay relative to wild type LTR; parameters: scale not given: the % may be the effect or the level left; settings: tested as the 3H-labelled form
[7] = test system: Human immunodeficiency virus; test: Inhibition of HIV wild type integrase assessed as strand transfer activity using U5 GTAG LTR by scintillation proximity assay relative to wild type LTR; parameters: scale not given: the % may be the effect or the level left; settings: tested as the 3H-labelled form
[8] = test system: Human immunodeficiency virus; test: Binding affinity to HIV wild type integrase using U5 GTCA/CddC LTR relative to wild type LTR; settings: tested as the 3H-labelled form
[9] = test system: Human immunodeficiency virus type 1 integrase (Human immunodeficiency virus 1), Q7ZJM1 [N155H]; test: Binding affinity to HIV recombinant integrase N155H mutant using U5 GdCA LTR relative to wild type LTR; settings: tested as the 3H-labelled form
[10] = test system: Human immunodeficiency virus; test: (§1) Inhibition of HIV wild type integrase assessed as strand transfer activity using U5 GTAA LTR by scintillation proximity assay relative to wild type LTR; parameters: scale not given: the % may be the effect or the level left; settings: tested as the 3H-labelled form
[11] = test system: Human immunodeficiency virus; test: Inhibition of HIV wild type integrase assessed as strand transfer activity using U5 GGCA LTR by scintillation proximity assay relative to wild type LTR; parameters: scale not given: the % may be the effect or the level left; settings: tested as the 3H-labelled form
[12] = test system: Human immunodeficiency virus; test: Binding affinity to HIV wild type integrase using U5 GTCACA LTR relative to wild type LTR; settings: tested as the 3H-labelled form
[13] = test system: Human immunodeficiency virus type 1 integrase (Human immunodeficiency virus 1), Q7ZJM1 [Q148R]; test: Inhibition of HIV recombinant integrase Q148R mutant assessed as strand transfer activity using U5 GTCA LTR by scintillation proximity assay relative to wild type LTR; parameters: scale not given: the % may be the effect or the level left; settings: tested as the 3H-labelled form
[14] = test system: Human immunodeficiency virus type 1 integrase (Human immunodeficiency virus 1), Q7ZJM1 [N155H]; test: Inhibition of HIV recombinant integrase N155H mutant assessed as strand transfer activity using U5 INTCA LTR by scintillation proximity assay relative to wild type LTR; parameters: scale not given: the % may be the effect or the level left; settings: tested as the 3H-labelled form
[15] = test system: Human immunodeficiency virus type 1 integrase (Human immunodeficiency virus 1), Q7ZJM1 [N155H]; test: Inhibition of HIV recombinant integrase N155H mutant assessed as specific strand transfer activity using U5 ApTCA LTR by scintillation proximity assay relative to wild type LTR; parameters: scale not given: the % may be the effect or the level left; settings: tested as the 3H-labelled form
[16] = Inhibition of HIV wild type integrase strand transfer activity; parameters: species or system Human immunodeficiency virus
[17] = test system: Human immunodeficiency virus; test: Binding affinity to HIV wild type integrase using U5 GTCA/C LTR relative to wild type LTR; settings: tested as the 3H-labelled form
[18] = test system: Human immunodeficiency virus; test: Inhibition of HIV wild type integrase assessed as strand transfer activity using U5 GTGA LTR by scintillation proximity assay relative to wild type LTR; parameters: scale not given: the % may be the effect or the level left; settings: tested as the 3H-labelled form
[19] = test system: Human immunodeficiency virus type 1 integrase (Human immunodeficiency virus 1), Q7ZJM1 [N155H]; test: Inhibition of HIV recombinant integrase N155H mutant assessed as specific strand transfer activity using U5 GdCA LTR by scintillation proximity assay relative to wild type LTR; parameters: scale not given: the % may be the effect or the level left; settings: tested as the 3H-labelled form
[20] = test system: Human immunodeficiency virus; test: Inhibition of HIV wild type integrase assessed as specific strand transfer activity using U5 GTCA LTR by scintillation proximity assay relative to wild type LTR; parameters: scale not given: the % may be the effect or the level left; settings: tested as the 3H-labelled form
[21] = test system: Human immunodeficiency virus; test: Binding affinity to HIV wild type integrase using U5 GTCA/CT LTR relative to wild type LTR; settings: tested as the 3H-labelled form
[22] = test system: Human immunodeficiency virus; test: as §1; parameters: scale not given: the % may be the effect or the level left; settings: tested as the 3H-labelled form; remark: listed apart in the source
[23] = test system: Human immunodeficiency virus; test: Binding affinity to HIV wild type integrase using U5 dTCA LTR relative to wild type LTR; settings: tested as the 3H-labelled form
[24] = test system: Human immunodeficiency virus; test: Inhibition of HIV wild type integrase assessed as strand transfer activity using U5 INTCA LTR by scintillation proximity assay relative to wild type LTR; parameters: scale not given: the % may be the effect or the level left; settings: tested as the 3H-labelled form
[25] = test system: Human immunodeficiency virus; test: Inhibition of HIV wild type integrase assessed as specific strand transfer activity using U5 dTCA LTR by scintillation proximity assay relative to wild type LTR; parameters: scale not given: the % may be the effect or the level left; settings: tested as the 3H-labelled form
[26] = test system: Human immunodeficiency virus; test: Inhibition of HIV wild type integrase assessed as strand transfer activity using U5 GTTA LTR by scintillation proximity assay relative to wild type LTR relative to wild type LTR; parameters: scale not given: the % may be the effect or the level left; settings: tested as the 3H-labelled form
[27] = test system: Human immunodeficiency virus; test: Inhibition of HIV wild type integrase assessed as strand transfer activity using U5 GTdA LTR by scintillation proximity assay relative to wild type LTR; parameters: scale not given: the % may be the effect or the level left; settings: tested as the 3H-labelled form
[28] = test system: Human immunodeficiency virus; test: Inhibition of HIV wild type integrase assessed as specific strand transfer activity using U5 GTTA LTR by scintillation proximity assay relative to wild type LTR; parameters: scale not given: the % may be the effect or the level left; settings: tested as the 3H-labelled form
[29] = test system: Human immunodeficiency virus; test: Binding affinity to HIV wild type integrase using U5 INTCA LTR relative to wild type LTR; settings: tested as the 3H-labelled form
[30] = test system: Human immunodeficiency virus; test: Inhibition of HIV wild type integrase assessed as strand transfer activity using U5 GdC LTR by scintillation proximity assay relative to wild type LTR; parameters: scale not given: the % may be the effect or the level left; settings: tested as the 3H-labelled form
[31] = test system: Human immunodeficiency virus; test: Binding affinity to HIV wild type integrase using U5 GTGA LTR relative to wild type LTR; settings: tested as the 3H-labelled form
[32] = test system: Human immunodeficiency virus type 1 integrase (Human immunodeficiency virus 1), Q7ZJM1 [N155H]; test: Inhibition of HIV recombinant integrase N155H mutant assessed as strand transfer activity using U5 GTCA LTR by scintillation proximity assay relative to wild type LTR; parameters: scale not given: the % may be the effect or the level left; settings: tested as the 3H-labelled form
[33] = test system: Human immunodeficiency virus; test: Inhibition of HIV wild type integrase assessed as strand transfer activity using U5 GCCA LTR by scintillation proximity assay relative to wild type LTR; parameters: scale not given: the % may be the effect or the level left; settings: tested as the 3H-labelled form
[34] = test system: Human immunodeficiency virus; test: Binding affinity to HIV wild type integrase using U5 GTCA/CG LTR relative to wild type LTR; settings: tested as the 3H-labelled form
[35] = test system: Human immunodeficiency virus type 1 integrase (Human immunodeficiency virus 1), Q7ZJM1 [N155H]; test: Binding affinity to HIV recombinant integrase N155H mutant using U5 GTdA LTR relative to wild type LTR; settings: tested as the 3H-labelled form
[36] = test system: Human immunodeficiency virus type 1 integrase (Human immunodeficiency virus 1), Q7ZJM1 [N155H]; test: Binding affinity to HIV recombinant integrase N155H mutant using U5 INTCA LTR relative to wild type LTR; settings: tested as the 3H-labelled form
[37] = test system: Human immunodeficiency virus; test: Binding affinity to HIV wild type integrase using U5 GTGC LTR relative to wild type LTR; settings: tested as the 3H-labelled form
[38] = test system: Human immunodeficiency virus; test: Binding affinity to HIV wild type integrase using U5 GTAT LTR relative to wild type LTR; settings: tested as the 3H-labelled form
[39] = test system: Human immunodeficiency virus type 1 integrase (Human immunodeficiency virus 1), Q7ZJM1 [Q148R]; test: Binding affinity to HIV recombinant integrase Q148R mutant using U5 GTC LTR relative to wild type LTR; settings: tested as the 3H-labelled form
[40] = test system: Human immunodeficiency virus; test: Binding affinity to HIV wild type integrase using U5 GACA LTR relative to wild type LTR; settings: tested as the 3H-labelled form
[41] = test system: Human immunodeficiency virus; test: Inhibition of HIV wild type integrase assessed as specific strand transfer activity using U5 GACA LTR by scintillation proximity assay relative to wild type LTR; parameters: scale not given: the % may be the effect or the level left; settings: tested as the 3H-labelled form
[42] = test system: Human immunodeficiency virus; test: Inhibition of HIV wild type integrase assessed as strand transfer activity using U5 GTCA/CG LTR by scintillation proximity assay relative to wild type LTR; parameters: scale not given: the % may be the effect or the level left; settings: tested as the 3H-labelled form
[43] = test system: Human immunodeficiency virus; test: Inhibition of HIV wild type integrase assessed as strand transfer activity using U5 GTC LTR by scintillation proximity relative; parameters: scale not given: the % may be the effect or the level left; settings: tested as the 3H-labelled form
[44] = test system: Human immunodeficiency virus type 1 integrase (Human immunodeficiency virus 1), Q7ZJM1 [Q148R]; test: Inhibition of HIV recombinant integrase Q148R mutant assessed as strand transfer activity using U5 GTdA LTR by scintillation proximity assay relative to wild type LTR; parameters: scale not given: the % may be the effect or the level left; settings: tested as the 3H-labelled form
[45] = test system: Human immunodeficiency virus; test: Inhibition of HIV wild type integrase assessed as strand transfer activity usingU5 GTCA/CT LTR by scintillation proximity assay relative to wild type LTR; parameters: scale not given: the % may be the effect or the level left; settings: tested as the 3H-labelled form
[46] = test system: Human immunodeficiency virus type 1 integrase (Human immunodeficiency virus 1), Q7ZJM1 [Q148R]; test: Binding affinity to HIV recombinant integrase Q148R mutant using U5 GTdA LTR relative to wild type LTR; settings: tested as the 3H-labelled form

Cn1c(N2CCCCS2(=O)=O)nc(C(=O)NCc2ccc(F)cc2)c(O)c1=O [BMS-707035]
Activity [1]: 1% | Activity [2]: 75% | Activity [3]: 25% | Activity [4]: 2% | Activity [5]: < 25% | Activity [6]: < 25% | Activity [7]: < 25% | Activity [8]: 75% | Activity [9]: 21% | Activity [10]: 28% | Activity [11]: < 25% | Activity [12]: 75% | Activity [13]: 26% | Activity [14]: 23% | Activity [15]: > 40% | IC50 [16]: 0.015 µM | Activity [17]: < 25% | Activity [18]: 90% | Activity [19]: 62% | Activity [20]: 100% | Activity [21]: < 25% | Activity [22]: < 25% | Activity [23]: 15% | Activity [24]: 45% | Activity [25]: 67% | Activity [26]: 86% | Activity [27]: 32% | Activity [28]: 143% | Activity [29]: 62% | Activity [30]: 10% | Activity [31]: 74% | Activity [32]: 84% | Activity [33]: 75% | Activity [34]: 25% | Activity [35]: 12% | Activity [36]: 21% | Activity [37]: 25% | Activity [38]: < 25% | Activity [39]: 5% | Activity [40]: 25% | Activity [41]: 97% | Activity [42]: < 25% | Activity [43]: 109% | Activity [44]: 2.5% | Activity [45]: < 25% | Activity [46]: 2%

Source: ChEMBL document CHEMBL1156506, “Changes to the HIV long terminal repeat and to HIV integrase differentially impact HIV integrase assembly, activity, and the binding of strand transfer inhibitors” (J Biol Chem, 2007)
